Results as given in patent US9573978B2, “Cyclosporin derivatives for the treatment and prevention of a viral infection” (priority 2010, dated 2017).
pIC50: −log10 of the molar value. Starred links: 1 amine or outer side, 2 acyl side, 3 side chain; linkers in the order of their positions; H or OH if unused. Non-standard residues stand in square brackets, D forms with d. Residues, ends and D or L forms follow the SMILES beside them. ξ: configuration not given here. NMe(dihydroBmt) = CCCC[C@@H](C)[C@@H](O)[C@H](NC)C(=O)O; MeBmt = C/C=C/C[C@@H](C)[C@@H](O)[C@H](NC)C(=O)O; X2 = CN([C@H](SCCCN1CCOCC1)C(=O)[*:2])[*:1]; NMeLeu(4-OMe) = CN[C@@H](CC(C)(C)OC)C(=O)O; X4 = CCN(CC)CCS[C@@H](C(=O)[*:2])N(C)[*:1]; X1 = CCN(CC)CCS[C@H](C(=O)[*:2])N(C)[*:1]; X5 = CC=CCC(C)C(O)C(C(=O)[*:2])N(C)[*:1]; X7 = C=CCOC(C)(C)CC(C(=O)[*:2])N(C)[*:1]; X6 = CN(C(SCCCN1CCOCC1)C(=O)[*:2])[*:1]; NMeIle(3ξ) = CCC(C)[C@H](NC)C(=O)O; NMeL = CN[CH](CC(C)C)C(=O)O; NMeV = CN[CH](C(=O)O)C(C)C; Abu = CC[CH](N)C(=O)O

tested on: HCV replicon in Huh7 human hepatoma cell line ET (luc-ubi-neo/ET); assay: HCV subgenomic replicon assay, luciferase end point, cell line ET (luc-ubi-neo/ET); type: cell-based, Hepatitis C virus; conditions: HCV replicon-derived luciferase activity; read-out: Antiviral activity IC50
Procedure: The anti-HCV activity of cyclosporine derivatives were evaluated in the HCV subgenomic replicon assay. The assay use the cell line ET (luc-ubi-neo/ET), which is a Huh7 human hepatoma cell line harboring an HCV replicon with a stable luciferase (Luc) reporter. HCV RNA replication was assessed by quantifying HCV replicon-derived luciferase activity. The antiviral activity of cyclosporine analogs were evaluated after drug treatment, the EC 50 and EC 90 were determined in subsequent assessments by using the luciferase end point (Krieger, N., et al., 2001, J. Virol. 75, 4614-4624; Pietschmann, T., et al., 2002, J. Virol. 76, 4008-4021; each of which is incorporated herein by reference).

Question: `C=CCOC(C)(C)CC1C(=O)NC(C(C)C)C(=O)N(C)C(CC(C)C)C(=O)NC(C)C(=O)NC(C)C(=O)N(C)C(CC(C)C)C(=O)N(C)C(CC(C)C)C(=O)N(C)C(C(C)C)C(=O)N(C)C(C(O)C(C)CC=CC)C(=O)NC(CC)C(=O)N(C)C(SCCCN2CCOCC2)C(=O)N1C` [Example 26, [(R)-3-(N-Morphlino)propylthio-Sar]-3-[(γ-Allyloxy)-NMeLeu]-4-cyclosporin] (cyclo([X5][Abu][X6][X7]V[NMeL]AA[NMeL][NMeL][NMeV]); configuration not given here) was tested. Which pIC50 did it give?
Answer: 7.10

Question: `C/C=C/C[C@@H](C)[C@@H](O)[C@H]1C(=O)N[C@@H](CC)C(=O)N(C)CC(=O)N(C)[C@@H](C(C)C)C(=O)N[C@@H](C(C)C)C(=O)N(C)[C@@H](CC(C)C)C(=O)N[C@@H](C)C(=O)N[C@H](C)C(=O)N(C)[C@@H](CC(C)C)C(=O)N(C)[C@@H](CC(C)C)C(=O)N(C)[C@@H](C(C)C)C(=O)N1C` [SDZ-220-384, N-MeVal-4-Cyclosporin] was tested. Which pIC50 did it give?
Answer: 6.77

Question: `C/C=C/C[C@@H](C)[C@@H](O)[C@H]1C(=O)N[C@@H](CC)C(=O)N(C)[C@H](SCCN(CC)CC)C(=O)N(C)[C@@H](C(C)C)C(=O)N[C@@H](C(C)C)C(=O)N(C)[C@@H](CC(C)C)C(=O)N[C@@H](C)C(=O)N[C@H](C)C(=O)N(C)[C@@H](CC(C)C)C(=O)N(C)[C@@H](CC(C)C)C(=O)N(C)[C@@H](C(C)C)C(=O)N1C` [[(R)-2-(N,N-Diethylamino)ethylthio-Sar]-3-[NMeVal]-4-cyclosporin] (cyclo(A[dA][NMeL][NMeL][NMeV][MeBmt][Abu][X1][NMeV]V[NMeL])) was tested. Which pIC50 did it give?
Answer: 7.40

Question: `C/C=C/C[C@@H](C)[C@@H](O)[C@H]1C(=O)N[C@@H](CC)C(=O)N(C)[C@@H](SCCN(CC)CC)C(=O)N(C)[C@@H](C(C)C)C(=O)N[C@@H](C(C)C)C(=O)N(C)[C@@H](CC(C)C)C(=O)N[C@@H](C)C(=O)N[C@H](C)C(=O)N(C)[C@@H](CC(C)C)C(=O)N(C)[C@@H](CC(C)C)C(=O)N(C)[C@@H](C(C)C)C(=O)N1C` [[(S)-2-(N,N-Diethylamino)ethylthio-Sar]-3-[NMeVal]-4-cyclosporin] (cyclo(A[dA][NMeL][NMeL][NMeV][MeBmt][Abu][X4][NMeV]V[NMeL])) was tested. Which pIC50 did it give?
Answer: 5.44

Question: How did the pIC50 turn out when “[(S)-2-(N,N-Diethylamino)ethylthio-Sar]-3-[NMeIle]-4-cyclosporin” was run?
Answer: 5.73

same assay, conditions: Hepatitis C virus, Huh-7, read-out: Antiviral activity IC50

Question: With `C/C=C/C[C@@H](C)[C@@H](O)[C@H]1C(=O)N[C@@H](CC)C(=O)N(C)[C@H](SCCCN2CCOCC2)C(=O)N(C)[C@@H](CC(C)(C)O)C(=O)N[C@@H](C(C)C)C(=O)N(C)[C@@H](CC(C)C)C(=O)N[C@@H](C)C(=O)N[C@H](C)C(=O)N(C)[C@@H](CC(C)C)C(=O)N(C)[C@@H](CC(C)C)C(=O)N(C)[C@@H](C(C)C)C(=O)N1C` [Example 1, [(R)-3-(N-Morphlino)propylthio-Sar]-3-[(γ-Hydroxy)-NMeLeu]-4-cyclosporin] as the compound, how does the pIC50 read?
Answer: 7.40

Question: `C/C=C/C[C@@H](C)[C@@H](O)[C@H]1C(=O)N[C@@H](CC)C(=O)N(C)[C@H](SCCCN(CC)CC)C(=O)N(C)[C@@H](CC(C)(C)O)C(=O)N[C@@H](C(C)C)C(=O)N(C)[C@@H](CC(C)C)C(=O)N[C@@H](C)C(=O)N[C@H](C)C(=O)N(C)[C@@H](CC(C)C)C(=O)N(C)[C@@H](CC(C)C)C(=O)N(C)[C@@H](C(C)C)C(=O)N1C` [Example 2, [(R)-3-(N,N-Diethylamino)propylthio-Sar]-3-[(γ-Hydroxy)-NMeLeu]-4-cyclosporin] was tested. Which pIC50 did it give?
Answer: 7.15

Question: With `CCCC[C@@H](C)[C@@H](O)[C@H]1C(=O)N[C@@H](CC)C(=O)N(C)[C@H](SCCCN2CCOCC2)C(=O)N(C)[C@@H](CC(C)(C)OC)C(=O)N[C@@H](C(C)C)C(=O)N(C)[C@@H](CC(C)C)C(=O)N[C@@H](C)C(=O)N[C@H](C)C(=O)N(C)[C@@H](CC(C)C)C(=O)N(C)[C@@H](CC(C)C)C(=O)N(C)[C@@H](C(C)C)C(=O)N1C` [Example 10, [(R)-3-(N-Morphlino)propylthio-Sar]-3-[(γ-Methoxy)-NMeLeu]-4-Dihydrocyclosporin] (cyclo(A[dA][NMeL][NMeL][NMeV][NMe(dihydroBmt)][Abu][X2][NMeLeu(4-OMe)]V[NMeL])) as the compound, how does the pIC50 read?
Answer: 7.05

Question: How did the pIC50 turn out when `C/C=C/C[C@@H](C)[C@@H](O)[C@H]1C(=O)N[C@@H](CC)C(=O)N(C)[C@H](SCCCN2CCOCC2)C(=O)N(C)[C@@H](CC(C)(C)OC)C(=O)N[C@@H](C(C)C)C(=O)N(C)[C@@H](CC(C)C)C(=O)N[C@@H](C)C(=O)N[C@H](C)C(=O)N(C)[C@@H](CC(C)C)C(=O)N(C)[C@@H](CC(C)C)C(=O)N(C)[C@@H](C(C)C)C(=O)N1C` [Example 12, [(R)-3-(N-Morphlino)propylthio-Sar]-3-[(γ-Methoxy)-NMeLeu]-4-cyclosporin] was run?
Answer: 7.22

Question: How did the pIC50 turn out when `C/C=C/C[C@@H](C)[C@@H](O)[C@H]1C(=O)N[C@@H](CC)C(=O)N(C)CC(=O)N(C)[C@@H]([C@@H](C)CC)C(=O)N[C@@H](C(C)C)C(=O)N(C)[C@@H](CC(C)C)C(=O)N[C@@H](C)C(=O)N[C@H](C)C(=O)N(C)[C@@H](CC(C)C)C(=O)N(C)[C@@H](CC(C)C)C(=O)N(C)[C@@H](C(C)C)C(=O)N1C` [SDZ-NIM-811, N-MeIle-4-Cyclosporin] was run?
Answer: 6.82

Question: `C/C=C/C[C@@H](C)[C@@H](O)[C@H]1C(=O)N[C@@H](CC)C(=O)N(C)[C@H](SCCN(CC)CC)C(=O)N(C)[C@@H](C(C)CC)C(=O)N[C@@H](C(C)C)C(=O)N(C)[C@@H](CC(C)C)C(=O)N[C@@H](C)C(=O)N[C@H](C)C(=O)N(C)[C@@H](CC(C)C)C(=O)N(C)[C@@H](CC(C)C)C(=O)N(C)[C@@H](C(C)C)C(=O)N1C` (stereo partly drawn) [[(R)-2-(N,N-Diethylamino)ethylthio-Sar]-3-[NMeIle]-4-cyclosporin] (cyclo(A[dA][NMeL][NMeL][NMeV][MeBmt][Abu][X1][NMeIle(3ξ)]V[NMeL])) was tested. Which pIC50 did it give?
Answer: 7.40
